Experimental data published in patent US8129366B2, “VLA-4 inhibitory drug” (Daiichi Sankyo Company, Limited, priority 2005, dated 2012).
In brackets after ≈: the same amount, converted by molar mass.

Columns and labels:
[1] = target: T1, hα4 and β1 integrins (Homo sapiens, UniProt P05556+P13612); experiment: In vitro inhibition of binding between CHO cells expressing hα4 and β1 integrins and Eu3+-hVCAM-1 D1D7-IgG; details: for Ki: CHO cells expressing hα4 and β1 integrins, Eu3+-hVCAM-1 D1D7-IgG ligand, without HSA; for IC50: in the presence of 3% human serum albumin (HSA final concentration 3%)
T1 construct: expressed in transfected cells; host or cells: CHO cells
Method in brief: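 Transfected CHO cells, cultured 2 days, were incubated with compound and Eu³⁺-hVCAM-1 D1D7-IgG (diluted to 2 nM) for 1 h at room temperature. Buffer was 25 mM HEPES pH 7.5 with 1 mM Ca²⁺, 1 mM Mg²⁺, 4 mM Mn²⁺ and 0.1% BSA, ±3% HSA final. Cells were washed at 4 °C and read by DELFIA time-resolved fluorescence; Ki was derived from IC50 using the Scatchard Kd.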

[2] = Solubility test in first and second liquid of the Japanese Pharmacopoeia
[3] = first liquid of the Japanese Pharmacopoeia (JP1), pH 1.2, simulated gastric fluid, First liquid of Japanese Pharmacopoeia (μg/mL), JP1, pH=1.2
[4] = second liquid of the Japanese Pharmacopoeia (JP2), pH 6.8, aqueous buffer, Second liquid of Japanese Pharmacopoeia (μg/mL), JP2, pH=6.8

T1 sequence (P13612 34-1032): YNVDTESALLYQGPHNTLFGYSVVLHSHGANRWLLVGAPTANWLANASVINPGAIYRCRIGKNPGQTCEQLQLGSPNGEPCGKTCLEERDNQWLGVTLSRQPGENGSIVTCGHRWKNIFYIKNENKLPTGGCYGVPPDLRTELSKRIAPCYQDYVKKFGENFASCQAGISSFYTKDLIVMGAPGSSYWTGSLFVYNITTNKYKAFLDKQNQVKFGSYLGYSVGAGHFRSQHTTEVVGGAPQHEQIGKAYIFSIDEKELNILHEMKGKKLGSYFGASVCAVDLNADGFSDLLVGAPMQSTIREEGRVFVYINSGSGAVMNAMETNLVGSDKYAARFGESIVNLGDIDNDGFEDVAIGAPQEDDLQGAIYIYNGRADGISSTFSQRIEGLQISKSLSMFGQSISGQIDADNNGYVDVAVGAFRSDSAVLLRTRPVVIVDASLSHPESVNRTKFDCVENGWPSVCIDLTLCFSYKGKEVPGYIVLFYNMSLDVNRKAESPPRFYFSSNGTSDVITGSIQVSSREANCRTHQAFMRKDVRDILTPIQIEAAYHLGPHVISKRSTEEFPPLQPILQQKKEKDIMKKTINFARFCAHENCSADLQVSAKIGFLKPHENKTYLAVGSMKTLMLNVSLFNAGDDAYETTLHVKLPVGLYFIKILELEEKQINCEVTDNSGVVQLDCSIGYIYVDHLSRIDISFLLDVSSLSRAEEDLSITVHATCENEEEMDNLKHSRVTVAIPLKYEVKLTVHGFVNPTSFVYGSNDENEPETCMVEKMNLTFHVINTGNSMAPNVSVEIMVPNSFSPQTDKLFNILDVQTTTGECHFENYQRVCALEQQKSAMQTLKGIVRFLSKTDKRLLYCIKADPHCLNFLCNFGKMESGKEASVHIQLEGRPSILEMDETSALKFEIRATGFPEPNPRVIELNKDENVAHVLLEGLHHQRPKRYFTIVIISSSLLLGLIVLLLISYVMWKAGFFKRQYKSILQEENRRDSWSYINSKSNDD
T1 sequence (P05556 21-798): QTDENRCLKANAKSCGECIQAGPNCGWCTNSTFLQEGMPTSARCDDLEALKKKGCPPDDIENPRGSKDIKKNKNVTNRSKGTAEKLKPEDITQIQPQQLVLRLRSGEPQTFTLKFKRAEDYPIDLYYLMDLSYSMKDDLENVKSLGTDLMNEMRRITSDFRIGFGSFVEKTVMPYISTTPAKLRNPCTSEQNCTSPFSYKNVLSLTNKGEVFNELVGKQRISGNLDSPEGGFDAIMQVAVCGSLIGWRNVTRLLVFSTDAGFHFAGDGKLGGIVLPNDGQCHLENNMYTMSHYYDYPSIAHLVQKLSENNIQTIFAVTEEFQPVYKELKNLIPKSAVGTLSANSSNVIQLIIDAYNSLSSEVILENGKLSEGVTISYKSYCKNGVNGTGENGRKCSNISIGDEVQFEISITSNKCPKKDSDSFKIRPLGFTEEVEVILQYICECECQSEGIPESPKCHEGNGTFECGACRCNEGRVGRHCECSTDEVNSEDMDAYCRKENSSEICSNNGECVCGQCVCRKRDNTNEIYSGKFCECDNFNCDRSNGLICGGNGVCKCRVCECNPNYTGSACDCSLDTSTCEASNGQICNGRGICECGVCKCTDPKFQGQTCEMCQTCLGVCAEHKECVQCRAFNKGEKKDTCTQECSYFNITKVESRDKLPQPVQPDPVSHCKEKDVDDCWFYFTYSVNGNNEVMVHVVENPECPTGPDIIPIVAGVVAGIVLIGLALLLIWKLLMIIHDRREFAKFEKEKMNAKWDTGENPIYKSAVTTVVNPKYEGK

Ki [1] [nM] | IC50 [1] [nM] | solubility [2, 3] [µg/mL] | solubility [2, 4] [µg/mL] | Solubility, Second liquid of Japanese Pharmacopoeia ([2]; JP2, pH=6.8) [µg/mL] | SMILES
1.2 | 9.2 | > 2000 | 1580 (≈ 2310 µM) | – | CO[C@@H]1CCCN([C@H]2C[C@@H](CO[C@H]3CC[C@H](C(=O)O)CC3)N(C(=O)Cc3cc(Cl)c(NC(=O)c4csc5ccccc45)cc3F)C2)C1 [Example 106, Trans-4-[1-[[4-[(benzo[b]thiophen-3-ylcarbonyl)amino]-5-chloro-2-fluorophenyl]acetyl]-(4S)-[(3R)-methoxypiperidin-1-yl]-(2S)-pyrrolidinylmethoxy]cyclohexanecarboxylic acid]
0.34 | 3.8 | > 2000 | 1020 (≈ 1450 µM) | – | COCC1CCN([C@H]2C[C@@H](CO[C@H]3CC[C@H](C(=O)O)CC3)N(C(=O)Cc3cc(Cl)c(NC(=O)c4csc5ccccc45)cc3F)C2)CC1 [Example 99, Trans-4-[1-[[4-[(benzo[b]thiophen-3-ylcarbonyl)amino]-5-chloro-2-fluorophenyl]acetyl]-(4S)-[(4-methoxymethyl)piperidin-1-yl]-(2S)-pyrrolidinylmethoxy]cyclohexanecarboxylic acid]
1.9 | 15 | > 2000 | > 2000 | – | COC1CN([C@H]2C[C@@H](CO[C@H]3CC[C@H](C(=O)O)CC3)N(C(=O)Cc3cc(Cl)c(NC(=O)c4cn(C)c5ccccc45)cc3F)C2)C1 [Example 1]
2.6 | 12 | 1100 (≈ 1550 µM) | 1100 (≈ 1550 µM) | – | O=C(Nc1cc(F)c(CC(=O)N2C[C@@H](N3CC(N4CCCCC4)C3)C[C@H]2CO[C@H]2CC[C@H](C(=O)O)CC2)cc1Cl)c1csc2ccccc12 [Example 28, Trans-4-[1-[[4-[(benzo[b]thiophen-3-ylcarbonyl)amino]-5-chloro-2-fluorophenyl]acetyl]-(4S)-[3-(piperidin-1-yl)azetidin-1-yl]-(2S)-pyrrolidinylmethoxy]cyclohexanecarboxylic acid]
1.5 | 9 | 1100 (≈ 1650 µM) | 1300 (≈ 1950 µM) | – | C[C@@H]1CN([C@H]2C[C@@H](CO[C@H]3CC[C@H](C(=O)O)CC3)N(C(=O)Cc3ccc(NC(=O)c4nn(C)c5ccccc45)c(Cl)c3)C2)C[C@H](C)O1 [Example 88, Trans-4-[1-[[3-chloro-4-[(1-methyl-1H-indazol-3-ylcarbonyl)amino]phenyl]acetyl]-(4S)-(cis-2,6-dimethylmorpholin-4-yl)-(2S)-pyrrolidinylmethoxy]cyclohexanecarboxylic acid]
1.2 | 8.4 | 1000 (≈ 1420 µM) | 1000 (≈ 1420 µM) | – | CO[C@H]1CN([C@H]2C[C@@H](CO[C@H]3CC[C@H](C(=O)O)CC3)N(C(=O)Cc3cc(Cl)c(NC(=O)c4csc5ccccc45)cc3F)C2)C[C@@H]1OC [Example 52, Trans-4-[1-[[4-[(benzo[b]thiophen-3-ylcarbonyl)amino]-5-chloro-2-fluorophenyl]acetyl]-(4S)-[(3S,4S)-dimethoxypyrrolidin-1-yl]-(2S)-pyrrolidinylmethoxy]cyclohexanecarboxylic acid]
5.6 | 20 | > 2000 | > 2000 | – | CO[C@@H]1CCN([C@H]2C[C@@H](CO[C@H]3CC[C@H](C(=O)O)CC3)N(C(=O)Cc3cc(Cl)c(NC(=O)c4cn(C)c5ccccc45)cc3Cl)C2)C1 [Example 33, Trans-4-[1-[[2,5-dichloro-4-[(1-methyl-1H-indol-3-ylcarbonyl)amino]phenyl]acetyl]-(4S)-[(3R)-methoxypyrrolidin-1-yl]-(2S)-pyrrolidinylmethoxy]cyclohexanecarboxylic acid]
4.7 | 23 | 1000 (≈ 1340 µM) | 1000 (≈ 1340 µM) | – | CCO[C@H]1CN([C@H]2C[C@@H](CO[C@H]3CC[C@H](C(=O)O)CC3)N(C(=O)Cc3cc(Cl)c(NC(=O)c4cn(C)c5ccccc45)cc3Cl)C2)C[C@H]1OCC [Example 63, Trans-4-[1-[[2,5-dichloro-4-[(1-methyl-1H-indol-3-ylcarbonyl)amino]phenyl]acetyl]-(4S)-(3,4-cis-diethoxypyrrolidin-1-yl)-(2S)-pyrrolidinylmethoxy]cyclohexanecarboxylic acid]
3.2 | 12 | 1400 (≈ 1920 µM) | 1400 (≈ 1920 µM) | – | C[C@@H]1CN([C@H]2C[C@@H](CO[C@H]3CC[C@H](C(=O)O)CC3)N(C(=O)Cc3cc(Cl)c(NC(=O)c4cn(C)c5ccccc45)cc3F)C2)C[C@H](C)N1CCF [Example 147, Trans-4-[1-[[5-chloro-2-fluoro-4-[(1-methyl-1H-indol-3-ylcarbonyl)amino]phenyl]acetyl]-(4S)-[cis-2,6-dimethyl-1-(2-fluoroethyl)piperazin-4-yl]-(2S)-pyrrolidinylmethoxy]cyclohexanecarboxylic acid]
7.9 | 18 | 1000 (≈ 1420 µM) | 1000 (≈ 1420 µM) | – | CO[C@H]1CN([C@H]2C[C@@H](CO[C@H]3CC[C@H](C(=O)O)CC3)N(C(=O)Cc3cc(Cl)c(NC(=O)c4coc5ccccc45)cc3Cl)C2)C[C@H]1OC [Example 60, Trans-4-[1-[[4-[(benzo[b]furan-3-ylcarbonyl)amino]-2,5-dichlorophenyl]acetyl]-(4S)-(cis-3,4-dimethoxypyrrolidin-1-yl)-(2S)-pyrrolidinylmethoxy]cyclohexanecarboxylic acid]
0.32 | 2.2 | > 2000 | 1360 (≈ 1990 µM) | – | COC1CCN([C@H]2C[C@@H](CO[C@H]3CC[C@H](C(=O)O)CC3)N(C(=O)Cc3cc(Cl)c(NC(=O)c4csc5ccccc45)cc3F)C2)CC1 [Example 103, Trans-4-[1-[[4-[(benzo[b]thiophen-3-ylcarbonyl)amino]-5-chloro-2-fluorophenyl]acetyl]-(4S)-(4-methoxypiperidin-1-yl)-(2S)-pyrrolidinylmethoxy]cyclohexanecarboxylic acid]
0.25 | 30 | > 2000 | > 2000 | – | O=C(Nc1cc(F)c(CC(=O)N2C[C@@H](N3CCC(N4CCOCC4)CC3)C[C@H]2CO[C@H]2CC[C@H](C(=O)O)CC2)cc1Cl)c1csc2ccccc12 [Example 110, Trans-4-[1-[[4-[(benzo[b]thiophen-3-ylcarbonyl)amino]-5-chloro-2-fluorophenyl]acetyl]-(4S)-[4-(morpholin-4-yl)piperidin-1-yl]-(2S)-pyrrolidinylmethoxy]cyclohexanecarboxylic acid]
5.9 | 24 | 1940 (≈ 2770 µM) | 1840 (≈ 2630 µM) | – | CCO[C@H]1CCN([C@H]2C[C@@H](CO[C@H]3CC[C@H](C(=O)O)CC3)N(C(=O)Cc3cc(Cl)c(NC(=O)c4cn(C)c5ccccc45)cc3Cl)C2)C1 [Example 36, Trans-4-[1-[[2,5-dichloro-4-[(1-methyl-1H-indol-3-ylcarbonyl)amino]phenyl]acetyl]-(4S)-[(3S)-ethoxypyrrolidin-1-yl]-(2S)-pyrrolidinylmethoxy]cyclohexanecarboxylic acid]
8.2 | 12 | > 2000 | > 2000 | – | Cn1cc(C(=O)Nc2cc(Cl)c(CC(=O)N3C[C@@H](N4CCCOCC4)C[C@H]3CO[C@H]3CC[C@H](C(=O)O)CC3)cc2Cl)c2ccccc21 [Example 165, Trans-4-[1-[[2,5-dichloro-4-[(1-methyl-1H-indol-3-ylcarbonyl)amino]phenyl]acetyl]-(4S)-([1,4]-oxazepan-4-yl)-(2S)-pyrrolidinylmethoxy]cyclohexanecarboxylic acid]
1.5 | 5.2 | > 2000 | > 2000 | – | Cn1cc(C(=O)Nc2cc(F)c(CC(=O)N3C[C@@H](N4CCOCC4)C[C@H]3CO[C@H]3CC[C@H](C(=O)O)CC3)cc2Cl)c2ccccc21 [Example 78, Trans-4-[1-[[5-chloro-2-fluoro-4-[(1-methyl-1H-indol-3-ylcarbonyl)amino]phenyl]acetyl]-(4S)-(morpholin-4-yl)-(2S)-pyrrolidinylmethoxy]cyclohexanecarboxylic acid]
1.2 | 5.8 | 1840 (≈ 2800 µM) | 1680 (≈ 2560 µM) | – | O=C(Nc1cc(Cl)c(CC(=O)N2C[C@@H](N3CCCC3)C[C@H]2CO[C@H]2CC[C@H](C(=O)O)CC2)cc1Cl)c1csc2ccccc12 [Example 31, Trans-4-[1-[[4-[(benzo[b]thiophen-3-ylcarbonyl)amino]-2,5-dichlorophenyl]acetyl]-(4S)-(pyrrolidin-1-yl)-(2S)-pyrrolidinylmethoxy]cyclohexanecarboxylic acid]
0.32 | 1.1 | > 2000 | > 2000 | 1931 | CN(C)C(=O)[C@@H]1CCCN1[C@H]1C[C@@H](CO[C@H]2CC[C@H](C(=O)O)CC2)N(C(=O)Cc2cc(Cl)c(NC(=O)c3csc4ccccc34)cc2F)C1 [Example 42]
3.9 | 40 | > 2000 | 1920 (≈ 2800 µM) | – | CCOC1CN([C@H]2C[C@@H](CO[C@H]3CC[C@H](C(=O)O)CC3)N(C(=O)Cc3cc(Cl)c(NC(=O)c4cn(C)c5ccccc45)cc3Cl)C2)C1 [Example 20, Trans-4-[1-[[2,5-dichloro-4-[(1-methyl-1H-indol-3-ylcarbonyl)amino]phenyl]acetyl]-(4S)-(3-ethoxyazetidin-1-yl)-(2S)-pyrrolidinylmethoxy]cyclohexanecarboxylic acid]
